Data reported in paper PMC10410440, “Preclinical PK investigation of a novel IDO1/TDO dual inhibitor—SHR9146 in mouse plasma and tissues by LC-MS/MS” (Frontiers in Oncology, 2023).
Like-named read-outs stand apart in the source and are kept apart here.

Experiment: Plasma pharmacokinetics of SHR9146 in mice (LC-MS/MS, non-compartmental analysis)
Format: in vivo, ICR mice
Details: for MRT inf: read-out: MRT0-∞
Method: ICR mice with body weight 16–26 g were supplied by Shanghai Lingchang Biotechnology Co., Ltd. (animal breeding license number SCXK (Shanghai) 2013-0018) and housed at Shanghai Institute of Materia Medica, Chinese Academy of Sciences [animal use license number SYXK (Shanghai) 2015-0027]. The mice used in this study were fasted overnight for 12 h but had free access to water. Food was supplied 4 h post-dose. All experiments in this study were conducted in accordance with the Guidelines for the Care and Use of Laboratory Animals of Shanghai Institute of Materia Medica, Chinese Academy of Sciences.
A total of 30 mice were randomly assigned into five groups with equal numbers, males and females. One group was intravenously administrated with 5 mg/kg SHR9146 dissolved in […] plus 95% saline (adjusted pH to 4.0) under sterile conditions. The remaining four groups were administered respectively with a single dose of 20 , 40, or 80 mg/kg or multiple doses of 20 mg/kg twice daily for 7 days, by oral gavage of SHR9146 dissolved in 0.5% CMC-Na. Blood samples were obtained from the fossa orbitalis vein at 15 and 30 min and 1.0, 2.0, 4.0, 6.0, 8.0, 10.0, and 24.0 h after oral gavage administration. An additional 5-min time point was included for iv injection, as well as the pre-drug administration time points on the fifth, sixth, and seventh days in the multiple-dose group. The blood samples were collected in EDTA K2 anticoagulant blood collection tubes and centrifuged at 1,000 rpm for 5 min at 4°C. The supernatant plasma samples were thus produced.
Briefly as follows, an aliquot of 25-μL plasma or tissue homogenate was spiked with 100 μL of internal standard solution (1 μg/mL for plasma, 0.2 μg/mL for tissue homogenate) and 300 μL of methanol added and vortex mixed for 60 s. The mixture was then centrifuged at 14,000 rpm at 4°C for 5.0 min, and the supernatant was diluted with methanol–water (4:1, v/v) in a ratio of 1:9 for the plasma or 1:1 for the tissue homogenate, and 5 μL of the resulting solution was injected for the LC-MS/MS analysis.
The pharmacokinetic parameters of SHR9146 in mouse plasma were estimated by Phoenix 1.4 software using a non-compartmental model.
The mean concentration–time curves of SHR9146 in mouse plasma after a single oral gavage dose of 20, 40, or 80 mg/kg, or a single intravenous dose of 5 mg/kg, or the 7th-day steady state after twice-daily multiple oral doses of 20 mg/kg are shown in Figure 5 (Table S6).

[1] = 20 mg/kg i.g. single dose, all mice (Totol, 3 male + 3 female), plasma
[2] = 20 mg/kg i.g. single dose, female mice, plasma
[3] = 20 mg/kg i.g. single dose, male mice, plasma
[4] = 20 mg/kg oral twice daily for 7 days vs single 20 mg/kg oral dose, mice
[5] = 40 mg/kg i.g. single dose, male mice, plasma
[6] = 80 mg/kg i.g. single dose, all mice (Totol, 3 male + 3 female), plasma
[7] = 80 mg/kg i.g. single dose, female mice, plasma
[8] = 80 mg/kg i.g. single dose, male mice, plasma
[9] = ICR, mouse, iv, 5 mg/kg i.v. single dose, female mice, plasma
[10] = ICR, mouse, iv, 5 mg/kg i.v. single dose, male mice, plasma
[11] = both sexes, ICR, mouse, iv, 5 mg/kg i.v. single dose, all mice (Totol, 3 male + 3 female), plasma
[12] = both sexes, ICR, mouse, plasma, intravenous, 5 mg/kg, 5 mg/kg i.v., read-out: plasma drug concentration, individual mice #1-#6
[13] = both sexes, ICR, mouse, plasma, intravenous, 5 mg/kg, 5 mg/kg i.v., read-out: plasma drug concentration, mean (n=6)
[14] = both sexes, ICR, mouse, plasma, oral, 20 mg/kg, 20 mg/kg i.g. bid, 7 days, 7th day, read-out: plasma drug concentration, individual mice #1-#6
[15] = both sexes, ICR, mouse, plasma, oral, 20 mg/kg, 20 mg/kg i.g. bid, 7 days, 7th day, read-out: plasma drug concentration, mean (n=6)
[16] = both sexes, ICR, mouse, plasma, oral, 20 mg/kg, 20 mg/kg i.g. single, read-out: plasma drug concentration, mean (n=6)
[17] = both sexes, ICR, mouse, plasma, oral, 40 mg/kg, 40 mg/kg i.g. single, read-out: plasma drug concentration, mean (n=6)

plasma drug concentration, individual mice #1-#6 (5 mg/kg i.v., 4 h): BLQ | plasma drug concentration, individual mice #1-#6 (5 mg/kg i.v., 6 h): BLQ | plasma drug concentration, individual mice #1-#6 (5 mg/kg i.v., 8 h): BLQ | plasma drug concentration, individual mice #1-#6 (5 mg/kg i.v., 10 h): BLQ | plasma drug concentration, individual mice #1-#6 (5 mg/kg i.v., 24 h): BLQ | CL as share of the blood flow of mouse liver (5 mg/kg i.v., liver blood flow around 90 mL/min/kg (ref 23)): 13.3% | Vd as share of the total body fluid of mice (5 mg/kg i.v., total body fluid around 0.725 L/kg (ref 23)): 91.9% | CL (20 mg/kg i.g. bid, 7 days (7th-day steady state), all mice (Totol, 3 male + 3 female), plasma): 13.7 mL/min/kg | CL (20 mg/kg i.g. bid, 7 days (7th-day steady state), female mice, plasma): 13.7 mL/min/kg | CL (20 mg/kg i.g. bid, 7 days (7th-day steady state), male mice, plasma): 13.6 mL/min/kg | plasma drug concentration, individual mice #1-#6 (20 mg/kg i.g. bid, 7 days, 7th day, 0 h): BLQ | plasma drug concentration, individual mice #1-#6 (20 mg/kg i.g. bid, 7 days, 7th day, 8 h): BLQ | plasma drug concentration, individual mice #1-#6 (20 mg/kg i.g. bid, 7 days, 7th day, 10 h): BLQ | plasma drug concentration, individual mice #1-#6 (20 mg/kg i.g. bid, 7 days, 7th day, 24 h): BLQ | plasma drug concentration, individual mice #1-#6 (20 mg/kg i.g. bid, 7 days, Fifth day, pre-drug administration): BLQ | plasma drug concentration, individual mice #1-#6 (20 mg/kg i.g. bid, 7 days, Sixth day, pre-drug administration): BLQ | plasma drug concentration, individual mice #1-#6 (20 mg/kg i.g. single (dose cell empty, taken from the line above), 24 h): BLQ | CL [1]: 20.5 mL/min/kg | Vd [1]: 2.02 L/kg | CL [2]: 18.6 mL/min/kg | Vd [2]: 1.88 L/kg | CL [3]: 22.8 mL/min/kg | Vd [3]: 2.189 L/kg | plasma drug concentration, individual mice #1-#6 (20 mg/kg i.g. single, 4 h): BLQ | plasma drug concentration, individual mice #1-#6 (20 mg/kg i.g. single, 6 h): BLQ | plasma drug concentration, individual mice #1-#6 (20 mg/kg i.g. single, 8 h): BLQ | plasma drug concentration, individual mice #1-#6 (20 mg/kg i.g. single, 10 h): BLQ | steady-state AUC relative to single oral dose [4]: 1.55 fold | steady-state Cmax relative to single oral dose [4]: 1.08 fold | accumulation after multiple oral doses (20 mg/kg oral twice daily for 7 days, mouse plasma): no significant accumulation | CL [5]: 20.0 mL/min/kg | Vd [5]: 3.07 L/kg | plasma drug concentration, individual mice #1-#6 (40 mg/kg i.g. single, 6 h): BLQ | plasma drug concentration, individual mice #1-#6 (40 mg/kg i.g. single, 8 h): BLQ | plasma drug concentration, individual mice #1-#6 (40 mg/kg i.g. single, 10 h): BLQ | plasma drug concentration, individual mice #1-#6 (40 mg/kg i.g. single, 24 h): BLQ | CL [6]: 18.8 mL/min/kg | Vd [6]: 5.19 L/kg | CL [7]: 20.2 mL/min/kg | Vd [7]: 4.00 L/kg | CL [8]: 17.6 mL/min/kg | Vd [8]: 6.22 L/kg | plasma drug concentration, individual mice #1-#6 (80 mg/kg i.g. single, 6 h): BLQ | plasma drug concentration, individual mice #1-#6 (80 mg/kg i.g. single, 8 h): BLQ | plasma drug concentration, individual mice #1-#6 (80 mg/kg i.g. single, 24 h): BLQ | clearance [9]: 12.1 mL/min/kg | MRT inf [9]: 0.882 h | Vd (ICR, mouse, iv, 5 mg/kg i.v. single dose, female mice, plasma, read-out: Vd): 0.638 L/kg | clearance [10]: 12 mL/min/kg | MRT inf [10]: 0.965 h | Vd (ICR, mouse, iv, 5 mg/kg i.v. single dose, male mice, plasma, read-out: Vd): 0.694 L/kg | concentration at 8 h (ICR, mouse, plasma, intravenous, 5 mg/kg, 5 mg/kg i.v., 8 h, read-out: plasma drug concentration, individual mice #1-#6): 149 ng/mL | MRT inf (ICR, mouse, po, 20 mg/kg i.g. single dose, female mice, plasma): 1.68 h | MRT inf (ICR, mouse, po, 20 mg/kg i.g. single dose, male mice, plasma): 1.6 h | MRT inf (ICR, mouse, po, 40 mg/kg i.g. single dose, male mice, plasma): 2.56 h | MRT inf (ICR, mouse, po, 80 mg/kg i.g. single dose, female mice, plasma): 3.29 h | MRT inf (ICR, mouse, po, 80 mg/kg i.g. single dose, male mice, plasma): 5.9 h | clearance [11]: 12 mL/min/kg | MRT inf [11]: 0.923 h | Vd (both sexes, ICR, mouse, iv, 5 mg/kg i.v. single dose, all mice (Totol, 3 male + 3 female), plasma, read-out: Vd): 0.666 L/kg | concentration at 0.083 h [12]: 7880 ng/mL | concentration at 0.083 h [13]: 6860 ng/mL | concentration at 0.25 h [12]: 5210 ng/mL | concentration at 0.25 h [13]: 5230 ng/mL | concentration at 0.5 h [12]: 4530 ng/mL | concentration at 0.5 h [13]: 3610 ng/mL | concentration at 1 h [12]: 2450 ng/mL | concentration at 1 h [13]: 2760 ng/mL | concentration at 2 h [13]: 605 ng/mL | concentration at 4 h (both sexes, ICR, mouse, plasma, intravenous, 5 mg/kg, 5 mg/kg i.v., 4 h, read-out: plasma drug concentration, mean (n=6)): 126 ng/mL | AUC(0-inf) (both sexes, ICR, mouse, plasma, iv, 5 mg/kg, 5 mg/kg i.v. single dose, all mice (Totol, 3 male + 3 female), plasma): 6930 ng·h/mL | AUC(0-t) (both sexes, ICR, mouse, plasma, iv, 5 mg/kg, 5 mg/kg i.v. single dose, all mice (Totol, 3 male + 3 female), plasma, read-out: AUC0-t): 6760 ng·h/mL | half-life (both sexes, ICR, mouse, plasma, iv, 5 mg/kg, 5 mg/kg i.v. single dose, all mice (Totol, 3 male + 3 female), plasma, read-out: t1/2 (converted)): 0.713 h | half-life (both sexes, ICR, mouse, plasma, mice, all doses and routes except the high oral dose (80 mg/kg), read-out: mean terminal half-life in plasma, range): 0.699 to 1.66 h | concentration at 0.25 h [14]: 4300 ng/mL | concentration at 0.25 h [15]: 5710 ng/mL | concentration at 0.5 h [15]: 8020 ng/mL | concentration at 1 h [14]: 9900 ng/mL | concentration at 1 h [15]: 9430 ng/mL | concentration at 2 h [15]: 6170 ng/mL | concentration at 3 h [15]: 3170 ng/mL | concentration at 4 h (both sexes, ICR, mouse, plasma, oral, 20 mg/kg, 20 mg/kg i.g. bid, 7 days, 7th day, 4 h, read-out: plasma drug concentration, mean (n=6)): 1590 ng/mL | concentration at 6 h (both sexes, ICR, mouse, plasma, oral, 20 mg/kg, 20 mg/kg i.g. bid, 7 days, 7th day, 6 h, read-out: plasma drug concentration, mean (n=6)): 453 ng/mL | concentration at 8 h (both sexes, ICR, mouse, plasma, oral, 20 mg/kg, 20 mg/kg i.g. bid, 7 days, 7th day, 8 h, read-out: plasma drug concentration, mean (n=6)): 58 ng/mL | concentration at 10 h (both sexes, ICR, mouse, plasma, oral, 20 mg/kg, 20 mg/kg i.g. bid, 7 days, 7th day, 10 h, read-out: plasma drug concentration, individual mice #1-#6): 58 ng/mL | concentration at 24 h (both sexes, ICR, mouse, plasma, oral, 20 mg/kg, 20 mg/kg i.g. bid, 7 days, 7th day, 24 h, read-out: plasma drug concentration, individual mice #1-#6): 54 ng/mL | concentration at 0.25 h [16]: 7500 ng/mL | concentration at 0.5 h [16]: 8140 ng/mL | concentration at 1 h [16]: 4620 ng/mL | concentration at 2 h [16]: 3980 ng/mL | concentration at 3 h [16]: 2950 ng/mL | concentration at 4 h (both sexes, ICR, mouse, plasma, oral, 20 mg/kg, 20 mg/kg i.g. single, 4 h, read-out: plasma drug concentration, mean (n=6)): 526 ng/mL | concentration at 6 h (both sexes, ICR, mouse, plasma, oral, 20 mg/kg, 20 mg/kg i.g. single, 6 h, read-out: plasma drug concentration, individual mice #1-#6): 242 ng/mL | concentration at 8 h (both sexes, ICR, mouse, plasma, oral, 20 mg/kg, 20 mg/kg i.g. single, 8 h, read-out: plasma drug concentration, individual mice #1-#6): 194 ng/mL | concentration at 0.25 h [17]: 4830 ng/mL | concentration at 0.5 h [17]: 5310 ng/mL
Structure (SMILES): OCCn1cc(-c2ccc(N3CCC([C@H]4c5c(F)cccc5-c5cncn54)CC3)cc2)cn1 [SHR9146]
